Data taken from patent US20250195502A1, “APPLICATION OF TETRACYCLIC COMPOUND IN TREATMENT OF TUMORS” (SHANGHAI SHIJIANG BIOTECHNOLOGY CO., LTD, priority 2022, published 2025).
Read-outs that look alike come from different tables or passages of the source.

Assays:
Type in all cases: cell-based
[1] = tested on: NCI-H82 (human small cell lung cancer cell); test: Cell viability assay (Promega CellTiter-Glo), inhibitory effect on NCI-H82; details: 72 h, 3 days of culture
Procedure: (§1) The inhibitory effect of the compounds prepared in the Examples of the present invention on various tumor cell lines was detected using cell viability assay reagent.
(§2) Cell viability was detected using the Promega CellTiter-Glo kit, cell viability was determined by directly measuring intracellular ATP content. In the experiment, the ICso value of the compounds prepared in the Examples of the present invention on various tumor cell lines was detected.
(§3) Each tumor cell was cultured in relevant medium. After cell passage, the gradient diluted compounds prepared in the Examples of the present invention was added. After 3 days of culture, the relevant IC50 (50% inhibiting concentration) was measured. The name, source and culture conditions of each tumor cell line were as follows:
Cell line NCI-H82 (ATCC, No. HTB-175) was cultured in 10% fetal bovine serum-containing RPMI1640 medium (+P/S).

[2] = tested on: NB-1 (brain neuroblastoma cell); test: Cell viability assay (Promega CellTiter-Glo), inhibitory effect on NB-1; details: Homo sapiens, 72 h, 3 days of culture, read-out: inhibitory effect on brain cell line NB-1 (IC50)
Procedure: (§4) The inhibitory effect of the compounds prepared in the Examples of the present invention on various brain tumor cell lines was detected using cell viability assay reagent.
(§5) Cell viability was detected using the Promega CellTiter-Glo kit, cell viability was determined by directly measuring intracellular ATP content. In the experiment, the IC50 value of the compounds prepared in the Examples of the present invention on various brain tumor cell lines was detected.
as §3
Cell line NB-1 (ATCC, No. HTB-131) was cultured in 10% fetal bovine serum-containing Leibovitz's L-15 medium (+P/S).

[3] = tested on: ov-NNMT NCI-H82 cell (NNMT protein-overexpressing NCI-H82); test: Cell viability assay (Promega CellTiter-Glo), inhibitory effect on ov-NNMT NCI-H82 cell; details: Homo sapiens
In short: (§6)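 Viability measured by CellTiter-Glo in three NCI-H82 variants: empty-vector control, viral NNMT overexpression, and viral shRNA DNMT1 knockdown, each checked by Western blot.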

[4] = tested on: G-401 (human renal carcinoma Wilms cell); test: Cell viability assay (Promega CellTiter-Glo), inhibitory effect on G-401; details: 72 h, 3 days of culture
Procedure: as §1, §2, §3
Cell line G-401 (ATCC, No. CRL-1441) was cultured in 10% fetal bovine serum-containing McCoy's 5a medium (+P/S).

[5] = tested on: SF126 (human glioblastoma multiforme cell); test: Cell viability assay (Promega CellTiter-Glo), inhibitory effect on SF126
Procedure: as §1, §2, §3
Cell line SF126 (JCRB, No. IFO50286) was cultured in 10% fetal bovine serum-containing EMEM medium (+P/S).
as §4, §5

[6] = tested on: 786-O (clear cell renal cell adenocarcinoma cell); test: Cell viability assay (Promega CellTiter-Glo), inhibitory effect on 786-O; details: Homo sapiens, 786-0, 72 h, 3 days of culture
Procedure: as §1, §2, §3
Cell line 786-0 (ATCC, No. CRL-1932) was cultured in 10% fetal bovine serum-containing RPMI1640 medium (+P/S).

[7] = tested on: MDA-MB-453 (breast cancer cell); test: Cell viability assay (Promega CellTiter-Glo), inhibitory effect on MDA-MB-453; details: Homo sapiens, 72 h, 3 days of culture
Procedure: as §1, §2, §3
Cell line MDA-MB-453 (ATCC, No. HTB-131) was cultured in 10% fetal bovine serum-containing Leibovitz's L-15 medium (+P/S).

[8] = tested on: GB-1 (human brain glioblastoma cell); test: Cell viability assay (Promega CellTiter-Glo), inhibitory effect on GB-1; details: 72 h, 3 days of culture
Procedure: as §1, §2, §3
Cell line GB-1 (JCRB, No. IFO50489) was cultured in 10% fetal bovine serum-containing DMEM medium (+P/S).
as §4, §5

[9] = tested on: D341 Med (cerebellar medulloblastoma cell); test: Cell viability assay (Promega CellTiter-Glo), inhibitory effect on D341 Med; details: Homo sapiens, 72 h, 3 days of culture, read-out: inhibitory effect on brain cell line D341 Med (IC50)
Procedure: as §4, §5, §3
Cell line D341 Med (ATCC, No. HTB-187) was cultured in 20% fetal bovine serum-containing EMEM medium (+P/S).

[10] = tested on: CFPAC-1 (human pancreatic cancer cell); test: Cell viability assay (Promega CellTiter-Glo), inhibitory effect on CFPAC-1; details: 72 h, 3 days of culture
Procedure: as §1, §2, §3
Cell line CFPAC-1 (ATCC, No. CRL-1918) was cultured in 10% fetal bovine serum-containing IMDM medium (+P/S).

[11] = tested on: Kelly (brain neuroblastoma cell); test: Cell viability assay (Promega CellTiter-Glo), inhibitory effect on Kelly; details: Homo sapiens, 72 h, 3 days of culture, read-out: inhibitory effect on brain cell line Kelly (IC50)
Procedure: as §4, §5, §3
Cell line Kelly (ECACC, No. 92110411) was cultured in 10% fetal bovine serum and 2 mM glutamine-containing RPMI1640 medium.

[12] = tested on: SW48 (human colon adenocarcinoma cell); test: Cell viability assay (Promega CellTiter-Glo), inhibitory effect on SW48; details: 72 h, 3 days of culture
Procedure: as §1, §2, §3
Cell line SW48 (ATCC, No. CCL-231) was cultured in 10% fetal bovine serum-containing Leibovitz's L-15 medium (+P/S).

[13] = tested on: sh-DNMT1 NCI-H82 cell (DNMT1 knocked down NCI-H82); test: Cell viability assay (Promega CellTiter-Glo), inhibitory effect on sh-DNMT1 NCI-H82 cell; details: Homo sapiens, NCI-H82 with DNMT1 knocked down by shRNA
In short: as §6

[14] = tested on: Con-NCI-H82 cell (NCI-H82 transfected with empty virus vector); test: Cell viability assay (Promega CellTiter-Glo), inhibitory effect on Con-NCI-H82 cell; details: Homo sapiens; NCI-H82 transfected with empty virus vector (control); CellTiter-Glo; read-out: inhibitory effect on Con-NCI-H82 (IC50)
In short: as §6

[15] = 72 h, SF-126, 3 days of culture, Table 3, read-out: inhibitory effect on SF-126 (IC50)
[16] = SF-126, 72 h, SF126, 3 days of culture, Table 4, read-out: inhibitory effect on brain cell line SF126 (IC50)
[17] = Table 3, read-out: inhibitory effect on GB-1 (IC50)
[18] = Table 4, read-out: inhibitory effect on brain cell line GB-1 (IC50)

Row | Compound | IC50 [1] | IC50 [2] | IC50 [3] | IC50 [4] | IC50 [5, 15] | IC50 [5, 16] | IC50 [6] | IC50 [7] | IC50 [8, 17] | IC50 [8, 18] | IC50 [9] | IC50 [10] | IC50 [11] | IC50 [12] | IC50 [13] | IC50 [14]
1 | COc1ccc2c(CCCc3ccccc3)c3[n+](cc2c1OC)CCc1cc2c(cc1-3)OCO2 [compound AB31781] | 0.33 µM | 0.14 µM | 1.16 µM | 0.37 µM | 7.48 µM | 7.48 µM | 5.34 µM | 0.76 µM | 8.6 µM | 8.6 µM | 0.82 µM | 11.3 µM | 0.73 µM | 0.4 µM | 1.42 µM | 0.33 µM
2 | COc1ccc2c(Cc3ccc(OC(F)(F)F)cc3)c3[n+](cc2c1OC)CCc1cc2c(cc1-3)OCO2 [compound AB31788] | 0.71 µM | 0.31 µM | 2.42 µM | 0.63 µM | 10.9 µM | 10.9 µM | 10.8 µM | 1.03 µM | 16.5 µM | 16.5 µM | 1.88 µM | 16.9 µM | 1.3 µM | 0.69 µM | 2.95 µM | 0.71 µM
3 | COc1ccc2c(Cc3ccc(C(C)C)cc3)c3[n+](cc2c1OC)CCc1cc2c(cc1-3)OCO2 [compound AB31789] | 0.3 µM | 0.21 µM | 0.85 µM | 0.26 µM | 3.77 µM | 3.77 µM | 2.98 µM | 0.31 µM | 3.22 µM | 3.22 µM | 0.51 µM | 4.51 µM | 0.46 µM | 0.56 µM | 1.05 µM | 0.3 µM
4 | COc1ccc2cc3[n+](cc2c1OCC(=O)/C=C/c1ccc(C)cc1)CCc1cc2c(cc1-3)OCO2 [compound AB31790] | 0.43 µM | 0.23 µM | 1.52 µM | 0.82 µM | 3.26 µM | 3.26 µM | 4.75 µM | 0.91 µM | 3.73 µM | 3.73 µM | 0.26 µM | 7.82 µM | 0.27 µM | 0.42 µM | 1.39 µM | 0.43 µM
5 | COc1ccc2cc3[n+](cc2c1OCCCCCCNC(=O)OC(C)(C)C)CCc1cc2c(cc1-3)OCO2 [compound AB31808] | 0.33 µM | 0.06 µM | 0.86 µM | 0.48 µM | 4.58 µM | 4.58 µM | 3.9 µM | 0.28 µM | 5.56 µM | 5.56 µM | 0.43 µM | 7.32 µM | 1.05 µM | 0.39 µM | 1.04 µM | 0.33 µM

Continued by falling IC50 [1], values first:

Row | IC50 [1] | IC50 [2] | IC50 [3] | IC50 [4] | IC50 [5, 15] | IC50 [5, 16] | IC50 [6] | IC50 [7] | IC50 [8, 17] | IC50 [8, 18] | IC50 [9] | IC50 [10] | IC50 [11] | IC50 [12] | IC50 [13] | IC50 [14] | Compound
6 | 2.11 µM | 1.03 µM | 4.82 µM | 1.84 µM | > 50 µM | > 50 µM | 25.8 µM | 4.11 µM | > 50 µM | > 50 µM | 4.8 µM | > 50 µM | 4.82 µM | 1.35 µM | 6.04 µM | 2.11 µM | COc1ccc2c(Cc3ccc(C(F)(F)F)cc3)c3[n+](cc2c1OC)CCc1cc2c(cc1-3)OCO2 [compound AB31805]
7 | 0.44 µM | 0.16 µM | 1.38 µM | 0.53 µM | 10.1 µM | 10.1 µM | 7.88 µM | 0.87 µM | 11.8 µM | 11.8 µM | 1.92 µM | 15.5 µM | 0.99 µM | 0.56 µM | 1.86 µM | 0.44 µM | COc1ccc(CCCc2c3[n+](cc4c(OC)c(OC)ccc24)CCc2cc4c(cc2-3)OCO4)cc1 [compound AB31809]
8 | 0.34 µM | 0.08 µM | 0.88 µM | 0.49 µM | 4.29 µM | 4.29 µM | 4.09 µM | 0.28 µM | 4.23 µM | 4.23 µM | 0.33 µM | 6.63 µM | 0.69 µM | 0.48 µM | 1.31 µM | 0.34 µM | COc1ccc2cc3[n+](cc2c1OCCCCCCBr)CCc1cc2c(cc1-3)OCO2 [compound AB31787]
